In US9981968B2, “Substituted pyrrolo[2,3-d]pyrimidines for the treatment of cancer and proliferative disorders” (Northwestern University, priority 2013, dated 2018) one finds viability data, which are given here for 3 molecules.

Type in all cases: cell-based
One assay concerns HOP-62. Nature of the assay: SRB growth assay, HOP-62. The settings on record: Homo sapiens, HOP-62 (Non-Small Cell Lung), 48 hours, read-out: Percent viability. From the text:
(§1) Tested cell lines included, Leukemia: CCRF-CEM, HL-60(TB), MOLT-4, RPMI-8226 and SR; Non-Small Cell Lung: A549/ATCC, EKVX, HOP-62, HOP-92, NCI-H226, NCI-H23, NCI-H322M, NCI-H460 and NCI-H522; Colon: COLO 205, HCC-2998, HCT-116, HCT-15. HT29, KM12 and SW-620; CNS: SF-268, SF-295, SF-539, SNB-19, SNB-75 and U251; Melanoma: LOX IMVI, MALME-3M, M14, MDA-MB-435, SK-MEL-2, SK-MEL-28, SK-MEL-5, UACC-257 and UACC-62; Ovarian: IGR-OV1, OVCAR-3, OVCAR-4, OVCAR-5, OVCAR-8. NCI/ADR-RES and SK-OV-3; Renal: 786-0, A498, ACHN, CAKI-1, RXF 393, SN12C, TK-10 and UO-31; Prostate: DU-145 and PC-3; and Breast: MCF7, MDA-MB-231/ATCC, MDA-MB-468, HS 578T, BT-549 and T-47D.
(§2) The cells were cultured in RPMI1640 media supplemented with 10% Fetal Bovine Serum (FBS), 2 mM glutamine and with 5% CO2 and 37° C. For experiment, 5% of FBS and 50 ug/mL of gentamycin were used. Test articles were 10 μM of NUCL 381-3 or 10 μM NUCL 383-3. The positive control was 10 μM of doxorubicin.
(§3) Cells were plated in 96 well plates. The cells were plated in triplicate. Cells were plated at the densities based on NCI recommendation. Time zero cells (Tz) were fixed the following day with 50% or 80% ice cold Trichloracetic acid (TCA) and washed 5× with water. At 48 hours post addition of treatments, all remaining plates were fixed in 80% ice cold Trichloracetic acid (TCA) and washed 5× with water. After drying, one hundred microliters of 0.4% Sulphorhodamine B (SRB) in 1% acetic acid was added to each plate including the Tzero plate and incubated for 10 minutes at room temperature. After 5 additional washes with 1% acetic acid, plates were allowed to dry. One hundred microliters of Trizma base was added to each well and plates were read at 515 nm.
(§4) Percent of growth was calculated by the following formulas: [Ti/C]×100, where: Tz=absorbance readings for wells at time zero without treatment; C=absorbance readings of untreated cells (without treatment); and Ti=absorbance reading of wells with treatment.

In the next assay the test system is NCI-H226. Nature of the assay: SRB growth assay, NCI-H226. Conditions: Homo sapiens, NCI-H226 (Non-Small Cell Lung), 48 hours, read-out: Percent viability.
Description: as §1, §2, §3, §4
Background: Sulforhodamine B stains cellular protein and so reports cell mass.

The next assay concerns NCI-H23. Description: SRB growth assay, NCI-H23. Conditions: Homo sapiens, NCI-H23 (Non-Small Cell Lung), 48 hours, read-out: Percent viability.
Description: as §1, §2, §3, §4

The subject of another assay is HCT-116. Description: SRB growth assay, HCT-116. The settings on record: Homo sapiens, HCT-116 (Colon), 48 hours, read-out: Percent viability.
Description: as §1, §2, §3, §4

For another assay, the system named is HCT-15. Description: SRB growth assay, HCT-15. The settings on record: Homo sapiens, HCT-15 (Colon), 48 hours, read-out: Percent viability.
Description: as §1, §2, §3, §4

The test system of the next assay is SW-620. Description: SRB growth assay, SW-620. The settings on record: Homo sapiens, SW-620 (Colon), 48 hours, read-out: Percent viability.
Description: as §1, §2, §3, §4

The next assay concerns SF-268. Nature of the assay: SRB growth assay, SF-268. The settings on record: Homo sapiens, SF-268 (CNS), 48 hours, read-out: Percent viability.
Description: as §1, §2, §3, §4

Another assay deals with SF-295. Description: SRB growth assay, SF-295. Conditions: Homo sapiens, SF-295 (CNS), 48 hours, read-out: Percent viability.
Description: as §1, §2, §3, §4

Another assay deals with SF-539. Nature of the assay: SRB growth assay, SF-539. Conditions: Homo sapiens, SF-539 (CNS), 48 hours, read-out: Percent viability.
Description: as §1, §2, §3, §4

For the next assay, the system named is SNB-75. Nature of the assay: SRB growth assay, SNB-75. Conditions: Homo sapiens, SNB-75 (CNS), 48 hours, read-out: Percent viability.
Description: as §1, §2, §3, §4

The next assay has as its system U251. Description: SRB growth assay, U251. The settings on record: Homo sapiens, U-251, U251 (CNS), 48 hours, read-out: Percent viability.
Description: as §1, §2, §3, §4

A further assay relates to MALME-3M. Nature of the assay: SRB growth assay, MALME-3M. The settings on record: Homo sapiens, MALME-3M (Melanoma), 48 hours, read-out: Percent viability.
Description: as §1, §2, §3, §4

In another assay the test system is UACC-257. Description: SRB growth assay, UACC-257. Conditions: Homo sapiens, UACC-257 (Melanoma), 48 hours, read-out: Percent viability.
Description: as §1, §2, §3, §4

For the next assay, the system named is OVCAR-8. Nature of the assay: SRB growth assay, OVCAR-8. The settings on record: Homo sapiens, OVCAR-8 (Ovarian), 48 hours, read-out: Percent viability.
Description: as §1, §2, §3, §4

A further assay relates to NCI/ADR-RES. Description: SRB growth assay, NCI/ADR-RES. The settings on record: Homo sapiens, NCI/ADR-RES (Ovarian), 48 hours, read-out: Percent viability.
Description: as §1, §2, §3, §4

Another assay concerns ACHN. Nature of the assay: SRB growth assay, ACHN. The settings on record: Homo sapiens, ACHN (Renal), 48 hours, read-out: Percent viability.
Description: as §1, §2, §3, §4

The next assay relates to CAKI-1. Nature of the assay: SRB growth assay, CAKI-1. The settings on record: Homo sapiens, CAKI-1 (Renal), 48 hours, read-out: Percent viability.
Description: as §1, §2, §3, §4

A further assay has as its system RXF 393. Nature of the assay: SRB growth assay, RXF 393. Conditions: Homo sapiens, RXF 393 (Renal), 48 hours, read-out: Percent viability.
Description: as §1, §2, §3, §4

The next assay relates to UO-31. Description: SRB growth assay, UO-31. The settings on record: Homo sapiens, UO-31 (Renal), 48 hours, read-out: Percent viability.
Description: as §1, §2, §3, §4

The test system of the next assay is DU-145. Nature of the assay: SRB growth assay, DU-145. Conditions: Homo sapiens, DU-145 (Prostate), 48 hours, read-out: Percent viability.
Description: as §1, §2, §3, §4

The test system of the next assay is MCF7. Nature of the assay: SRB growth assay, MCF7. The settings on record: Homo sapiens, MCF7 (Breast), 48 hours, read-out: Percent viability.
Description: as §1, §2, §3, §4

For the next assay, the system named is T-47D. Nature of the assay: SRB growth assay, T-47D. Conditions: Homo sapiens, T47D, T-47D (Breast), 48 hours, read-out: Percent viability.
Description: as §1, §2, §3, §4

A further assay relates to MM1S. Nature of the assay: SRB growth assay, MM1S. The settings on record: Homo sapiens, MM1.S, MM1S (Multiple Myeloma), 48 hours, read-out: Percent viability.

As usually defined, the viability is a read-out of living cells in per cent, often relative to untreated cells. Take `COc1cccc2c1C(=O)c1c(O)c3c(c(O)c1C2=O)C[C@@](O)(C(=O)CO)C[C@@H]3O[C@H]1C[C@H](N)[C@H](O)[C@H](C)O1` [Doxorubicin, reference compound]: the viability at 10 µM with HOP-62 was 19.7%; in the assay on NCI-H226 it was 34.2%; in the assay on NCI-H23, 27.6%; with HCT-116 it was 14.9%; in the assay on HCT-15 it was 31.1%; with SW-620, 19%. For the same molecule, the viability at 10 µM with SF-268 was found to be 6.91%; with SF-295, 11.2%; in the assay with SF-539 it was 6.83%; in the assay with SNB-75 it was 36%; in the assay with U251, 22%; in the assay with MALME-3M it was 15.8%. The viability at 10 µM in the assay on UACC-257 was 100%; in the assay with OVCAR-8, 15%; with NCI/ADR-RES it was 78.8%; in the assay on ACHN it was 40.2%; with CAKI-1, 0%; in the assay with RXF 393 it was 8.68%. The viability at 10 µM in the assay with UO-31 was determined as 28.2%; in the assay on DU-145, 72.5%; in the assay with MCF7 it was 69.1%; in the assay on T-47D, 37.5%; with MM1S, 26.4%.
With `CS(=O)(=O)N1CCC(Cn2cc(C(F)(F)F)c3c(Cl)ncnc32)CC1` [NUCC-0000383], the viability at 10 µM was 88.5% with HOP-62; 29.5% with NCI-H226; 46.1% in the assay with NCI-H23; 15% with HCT-116; 38.8% in the assay on HCT-15; 25.7% in the assay with SW-620. Besides, the viability at 10 µM is 1.77% with SF-268; 56.2% with SF-295; 4.93% in the assay on SF-539; 23.3% with SNB-75; 2.47% with U251; 42.7% with MALME-3M. Moreover, the viability at 10 µM with UACC-257 was determined as 74.7%; with OVCAR-8 it was 73.9%; with NCI/ADR-RES, 99%; with ACHN, 77.8%; in the assay on CAKI-1, 46.8%; with RXF 393, 7.81%. The viability at 10 µM in the assay on UO-31 came out at 3.37%; in the assay on DU-145, 11.2%; in the assay with MCF7, 108%; in the assay with T-47D it was 63.3%; in the assay with MM1S, 58.2%.
As to `FC(F)(F)c1cn(CC2CCNCC2)c2ncnc(Cl)c12` [NUCC-0000381], the viability at 10 µM stood at 15.7% in the assay on HOP-62; 54.9% with NCI-H226; 42.3% in the assay on NCI-H23; 20.1% with HCT-116; 40.4% with HCT-15; 27.2% in the assay on SW-620. The viability at 10 µM with SF-268 came out at 3.37%; in the assay with SF-295 it was 44.4%; in the assay with SF-539 it was 7.4%; in the assay on SNB-75, 83.3%; with U251, 15.1%; in the assay on MALME-3M, 101%. For the same molecule, the viability at 10 µM in the assay on UACC-257 was found to be 87.2%; with OVCAR-8 it was 31.7%; with NCI/ADR-RES, 93.3%; with ACHN it was 23.3%; in the assay with CAKI-1, 86.8%; with RXF 393, 12%. The viability at 10 µM in the assay on UO-31 is 19.7%; in the assay with DU-145 it was 29.8%; in the assay with MCF7, 89.8%; in the assay on T-47D, 60.8%; with MM1S it was 52.3%.
